Experimental findings from patent US9464056B2, “Fungicidal 4-methylanilino pyrazoles” (E. I. DU PONT DE NEMOURS AND COMPANY, priority 2012, dated 2016) are described below.

Assay type in all cases: in vivo
The test system of one series is Alternaria solani. Kind of series: Test B: preventive spray on tomato seedlings, Alternaria solani (tomato early blight), visual disease rating. The conditions noted are these: 100 = 100% disease control, 0 = no disease control relative to controls. An excerpt:
General protocol for preparing test suspensions for Tests A-H: the test compounds were first dissolved in acetone in an amount equal to 3% of the final volume and then suspended at the desired concentration (in ppm) in acetone and purified water (50/50 mix by volume) containing 250 ppm of the surfactant Trem® 014 (polyhydric alcohol esters). The resulting test suspensions were then used in Tests A-F. Spraying a 40 ppm test suspension to the point of run-off on the test plants was the equivalent of a rate of 160 g/ha. Unless otherwise indicated, the rating values indicate a 40 ppm test suspension was used. The test suspension was sprayed to the point of run-off on tomato seedlings. The following day the seedlings were inoculated with a spore suspension of Alternaria solani (the causal agent of tomato early blight) and incubated in a saturated atmosphere at 27° C. for 48 h, and then moved to a growth chamber at 24° C. for 5 days, after which time visual disease ratings were made. Results for Tests A-F are given in Table A. In the Table, a rating of 100 indicates 100% disease control and a rating of 0 indicates no disease control (relative to the controls). A dash (-) indicates no test results.

For a further series, the system named is Botrytis cinerea. Briefly: Test A: preventive spray on tomato seedlings, Botrytis cinerea (tomato Botrytis), visual disease rating. As to conditions: 100 = 100% disease control, 0 = no disease control relative to controls. From the text:
General protocol for preparing test suspensions for Tests A-H: the test compounds were first dissolved in acetone in an amount equal to 3% of the final volume and then suspended at the desired concentration (in ppm) in acetone and purified water (50/50 mix by volume) containing 250 ppm of the surfactant Trem® 014 (polyhydric alcohol esters). The resulting test suspensions were then used in Tests A-F. Spraying a 40 ppm test suspension to the point of run-off on the test plants was the equivalent of a rate of 160 g/ha. Unless otherwise indicated, the rating values indicate a 40 ppm test suspension was used. The test suspension was sprayed to the point of run-off on tomato seedlings. The following day the seedlings were inoculated with a spore suspension of Botrytis cinerea (the causal agent of tomato Botrytis) and incubated in saturated atmosphere at 20° C. for 48 h, and then moved to a growth chamber at 27° C. for 3 days, after which time visual disease ratings were made. Results for Tests A-F are given in Table A. In the Table, a rating of 100 indicates 100% disease control and a rating of 0 indicates no disease control (relative to the controls). A dash (-) indicates no test results.

Series [1] can be described thus: Single oral dose pharmacokinetics in rats, plasma and fat analysed by LC/MS (fat:plasma ratio). The conditions noted are these: vertebrate animals (rats), single oral gavage dose; compared to corresponding analogs. Here is the method:
The pharmacokinetic properties of compounds of Formula 1 can be measured using a wide variety of assay protocols known in the science of pharmacology. In one illustrative method involving a single oral dose, three male and three female rats receive a single dose of a test substance via oral gavage. Approximately 0.25 mL of blood is collected via tail vein immediately prior to dosing, and then at 0.25, 0.5, 1, 2, 4, 8, 12, 24 h and every 24 h thereafter until sacrifice. At sacrifice, fat is also collected to determine the fat:plasma ratio at sacrifice. […] After removal of the proteins, the plasma is analyzed for parent compound and/or metabolites by liquid chromatography-mass spectrometry (LC/MS). […] The extract is then analyzed for parent compound and/or metabolites by LC/MS. The plasma pharmacokinetic data is then analyzed using nonlinear modeling software (e.g., WinNonlin™ from Pharsight, Cary, N.C., U.S.A.) to determine half-life of the administered compound in plasma, the time after administration when the maximum plasma concentration is reached (Tmax), the maximum plasma concentration (Cmax) and the area under the plasma concentration curve (AUC). […] However, by using multiple rats sacrificed after different intervals from time of dosing, such parameters as Cmax for fat are determined.

Structures are written as SMILES.

In general, pest or weed control refers to how far the test organism was held down.

Regarding `Cc1cc(F)c(Nc2c(-c3ccc(F)cc3Cl)c(C)nn2C)c(Br)c1` [Compound 1, N-(2-bromo-6-fluoro-4-methylphenyl)-4-(2-chloro-4-fluorophenyl)-1,3-dimethyl-1H-pyrazol-5-amine], in the series on Alternaria solani, the “Test B rating (% disease control)” value came to 99. In the series on Botrytis cinerea, this compound registered a pest or weed control at 40 µg/mL of 100%. Moreover, the distribution into fat entry in series [1] is given as “significantly diminished distribution into fat”.
